Where a name gives a salt, the structure may show the parent alone. Read-outs that look alike come from different tables or passages of the source.
What was measured:
Water solubility = assay type: physicochemical; settings: methylsulphonic acid salt
Mice of the CD1 strain = experiment: Anoxia test on mice under low (oxygen) pressure conditions; assay type: in vivo; settings: for Protective activity in the anoxia test under reduced pressure conditions, MAD (mean active dose, increases the survival time by 100%): CD1 mice, intraperitoneally 10 minutes before the test, 190 mm of mercury (5.25% oxygen), expressed as the base; for anti-anoxia activity compared to vincamine: mice, in words
Experimental: Mice of the CD1 strain are kept in an atmosphere depleted in oxygen, by producing a partial vacuum (190 mm of mercury, corresponding to 5.25% of oxygen).
The survival time of the animals is noted. This time is increased by agents capable of assisting tissue oxygenation and in particular cerebal oxygenation. The compounds studied are administered in several doses intraperitoneally 10 minutes before the test. The percentage increases in the survival time relative to the values obtained with comparison animals are calculated. The mean active dose (MAD), the dose which increases the survival time by 100%, is determined graphically.

[1] = Acute toxicity (50% lethal dose) in mice; assay type: in vivo; settings: mouse, in vivo
mice of the strain CD1 = experiment: Acute toxicity (50% lethal dose) in mice; assay type: in vivo; settings: for toxicity compared to vincamine, lower by a factor, intraperitoneal: intraperitoneally; for toxicity compared to vincamine, lower by a factor, intraperitoneal / toxicity compared to vincamine, lower by a factor, oral: factor vs vincamine; for toxicity compared to vincamine, lower by a factor, oral: orally
femoral artery of dogs = settings: in words; no test or source given; cited from earlier work
[2] = ip, CD1 mice, intraperitoneal, mortality recorded for 7 days, read-out: Acute toxicity LD50, intraperitoneal
[3] = mice, oral, read-out: Acute toxicity LD50, oral

Row | SMILES | water solubility (in words) (Water solubility) | Protective activity in the anoxia test under reduced pressure conditions, MAD (mean active dose, increases the survival time by 100%) (Mice of the CD1 strain) | anti-anoxia activity compared to vincamine (Mice of the CD1 strain) | LD50 at 168 h [1, 2] | LD50 at 168 h [1, 3] | toxicity compared to vincamine, lower by a factor, intraperitoneal (mice of the strain CD1; mice) | toxicity compared to vincamine, lower by a factor, oral (mice of the strain CD1; mice) | Acute toxicity LD50, intraperitoneal (mice of the strain CD1; CD1 mice, intraperitoneal, mortality recorded for 7 days) | Acute toxicity LD50, oral (mice of the strain CD1; mice, oral, 10080 min) | vasodilating activity compared to papaverine (known compounds) (femoral artery of dogs)
1 | CCC12C=C(C(=O)OC3CC(C)CC(C)(C)C3)n3c4c(c5ccccc53)CCN(CCC1)C42 (centres unmarked) [Example 3, methylsulphonic acid salt of 3,3,5-trimethylcyclohexyl apovincaminate] | water-soluble | 5 mg/kg | markedly greater than that of vincamine | 440 mg/kg | 2800 mg/kg | 2 | about 5 | – | – | –
2 | CC[C@@]12C=C(C(=O)OC3CC(C)CC(C)(C)C3)n3c4c(c5ccccc53)CCN(CCC1)[C@H]42.Cl (some centres unmarked) [Example 1, 3,3,5-Trimethylcyclohexyl apovincaminate] | – | 5.5 mg/kg | markedly greater than that of vincamine | – | – | 2 | about 5 | 430 mg/kg | 2100 mg/kg | –
3 | CC[C@]12CCCN3CCc4c(n(c5ccccc45)[C@@](O)(C(=O)OC)C1)[C@@H]32 [Vincamine, reference compound] | – | 8 mg/kg | – | 215 mg/kg | 460 mg/kg | – | – | – | – | at most equal to that of papaverine

Reference: US3987177A, “Vincaminic acid esters” (Synthelabo, priority 1974, dated 1976)
